Measurements from patent publication US9365522B2, “Pyrazole amide derivative” (AMGEN INC., priority 2015, dated 2016).

Target: T1, human RORγ-LBD (Homo sapiens, UniProt P51449)
T1 construct: made in house; host or cells: E. coli (BL-21)
T1 sequence (P51449 262-518): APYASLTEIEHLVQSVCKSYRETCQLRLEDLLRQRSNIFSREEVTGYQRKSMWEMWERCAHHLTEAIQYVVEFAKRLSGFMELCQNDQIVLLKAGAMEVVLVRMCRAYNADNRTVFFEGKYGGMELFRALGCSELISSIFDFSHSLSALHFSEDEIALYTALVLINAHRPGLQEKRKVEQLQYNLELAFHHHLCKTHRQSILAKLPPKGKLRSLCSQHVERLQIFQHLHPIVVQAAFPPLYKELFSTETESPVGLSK
Experiment: ROR gamma coactivator peptide recruitment Alphascreen assay (RORγ-LBD binding to GRIP1 coactivator peptide)
Format: biochemical
Conditions: 5 nM human RORγ-LBD, 30 nM 7-β-hydroxycholesterol, 50 nM biotinylated GRIP1 coactivator peptide, overnight incubation at room temperature; read-out: result (pIC50, RORγ coactivator peptide recruitment Alphascreen assay) (converted)
Method in brief: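 Alphascreen proximity read-out after overnight room-temperature incubation, yielding pIC50 from 1-in-2 compound series (2.5% DMSO final). Mixture: 50 nM biotin-GRIP1 peptide, 30 nM 7-β-hydroxycholesterol agonist, 5 nM recombinant 6×His:Flag human RORγ-LBD (aa 262-518), 50 mM HEPES pH 7.4.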

SMILES | IC50
C[C@]1(C(=O)O)CC[C@H](n2ncc(C(=O)N(CC(=O)c3c(F)cccc3Cl)CC3(F)CCCC3)c2C(F)(F)F)CC1 [Example 643, trans-4-(4-((2-(2-chloro-6-fluorophenyl)-2-oxoethyl)((1-fluorocyclopentyl)methyl)carbamoyl)-5-(trifluoromethyl)-1H-pyrazol-1-yl)-1-methylcyclohexanecarboxylic acid] | 4.27 nM
CCC(CC)(CC)CN(CC(=O)c1c(Cl)cncc1Cl)C(=O)c1cnn([C@H]2CC[C@](C)(C(=O)O)CC2)c1C(F)(F)F [Example 644, trans-4-(4-((2-(3,5-dichloro-4-pyridinyl)-2-oxoethyl)(2,2-diethylbutyl)carbamoyl)-5-(trifluoromethyl)-1H-pyrazol-1-yl)-1-methylcyclohexanecarboxylic acid] | 3.98 nM
COC1(CN(CC(=O)c2c(Cl)cncc2Cl)C(=O)c2cnn([C@H]3CC[C@](C)(C(=O)O)CC3)c2C(F)(F)F)CCCCC1 [Example 645, trans-4-(4-((2-(3,5-dichloro-4-pyridinyl)-2-oxoethyl)((1-methoxycyclohexyl)methyl)carbamoyl)-5-(trifluoromethyl)-1H-pyrazol-1-yl)1-methylcyclohexanecarboxylic acid] | 13.8 nM
COC1(CN(CC(=O)c2c(Cl)cncc2Cl)C(=O)c2cnn([C@H]3CC[C@@H](C(=O)O)CC3)c2C(F)(F)F)CCCC1 [Example 646, cis-4-(4-((2-(3,5-dichloro-4-pyridinyl)-2-oxoethyl)((1-methoxycyclopentyl)methyl)carbamoyl)-5-(trifluoromethyl)-1H-pyrazol-1-yl)cyclohexanecarboxylic acid] | 295 nM
CC1(C)C[C@H]1N(CC(=O)c1c(Cl)cncc1Cl)C(=O)c1cnn([C@H]2CC[C@](C)(C(=O)O)CC2)c1C(F)(F)F [Example 648, trans-4-(4-((2-(3,5-dichloro-4-pyridinyl)-2-oxoethyl)((1R)-2,2-dimethylcyclopropyl)carbamoyl)-5-(trifluoromethyl)-1H-pyrazol-1-yl)-1-methylcyclohexanecarboxylic acid] | 32.4 nM
C[C@]1(C(=O)O)CC[C@H](n2ncc(C(=O)N(CC(=O)c3c(Cl)cccc3Cl)[C@H]3CCC34CCCC4)c2C(F)(F)F)CC1 [Example 649, trans-4-(4-((2-(2,6-dichlorophenyl)-2-oxoethyl)((1S)-spiro[3.4]oct-1-yl)carbamoyl)-5-(trifluoromethyl)-1H-pyrazol-1-yl)-1-methylcyclohexanecarboxylic acid] | 1.82 nM
C[C@]1(C(=O)O)CC[C@H](n2ncc(C(=O)N(CC(=O)c3c(Cl)cccc3Cl)[C@@H]3CCC34CCCC4)c2C(F)(F)F)CC1 [Example 650, trans-4-(4-((2-(2,6-dichlorophenyl)-2-oxoethyl)((1R)-spiro[3.4]oct-1-yl)carbamoyl)-5-(trifluoromethyl)-1H-pyrazol-1-yl)-1-methylcyclohexanecarboxylic acid] | 7.94 nM
C[C@]1(C(=O)O)CC[C@H](n2ncc(C(=O)N(CC(=O)c3c(Cl)cccc3Cl)[C@@H]3CC34CCCC4)c2C(F)(F)F)CC1 [Example 652, trans-4-(4-((2-(2,6-dichlorophenyl)-2-oxoethyl)((1R)-spiro[2.4]hept-1-yl)carbamoyl)-5-(trifluoromethyl)-1H-pyrazol-1-yl)-1-methylcyclohexanecarboxylic acid] | 4.37 nM
C[C@]1(C(=O)O)CC[C@H](n2ncc(C(=O)N(CC(=O)c3c(Cl)cccc3Cl)[C@H]3CCOC4(CCC4)C3)c2C(F)(F)F)CC1 [Example 653, trans-4-(4-((2-(2,6-dichlorophenyl)-2-oxoethyl)((8S)-5-oxaspiro[3.5]non-8-yl)carbamoyl)-5-(trifluoromethyl)-1H-pyrazol-1-yl)-1-methylcyclohexanecarboxylic acid] | 70.8 nM
C[C@]1(C(=O)O)CC[C@H](n2ncc(C(=O)N(CC(=O)c3c(Cl)cccc3Cl)[C@@H]3CCOC4(CCC4)C3)c2C(F)(F)F)CC1 [Example 654, trans-4-(4-((2-(2,6-dichlorophenyl)-2-oxoethyl)((8R)-5-oxaspiro[3.5]non-8-yl)carbamoyl)-5-(trifluoromethyl)-1H-pyrazol-1-yl)-1-methylcyclohexanecarboxylic acid] | 355 nM
CC1(C)CC[C@H](CN(CC(=O)c2c(Cl)cncc2Cl)C(=O)c2cnn([C@H]3CC[C@](C)(C(=O)O)CC3)c2C(F)(F)F)O1 [Example 655, trans-4-(4-((2-(3,5-dichloro-4-pyridinyl)-2-oxoethyl)(((2R)-5,5-dimethyltetrahydro-2-furanyl)methyl)carbamoyl)-5-(trifluoromethyl)-1H-pyrazol-1-yl)-1-methylcyclohexanecarboxylic acid] | 26.9 nM
CC1(C)C[C@@H]1N(CC(=O)c1c(Cl)cncc1Cl)C(=O)c1cnn([C@H]2CC[C@H](C(=O)O)CC2)c1C(F)(F)F [Example 656, trans-4-(4-((2-(3,5-dichloro-4-pyridinyl)-2-oxoethyl)((1S)-2,2-dimethylcyclopropyl)carbamoyl)-5-(trifluoromethyl)-1H-pyrazol-1-yl)cyclohexanecarboxylic acid] | 186 nM
CCC(C)(C)CN(CC(=O)c1c(F)cccc1Cl)C(=O)c1cnn([C@H]2CC[C@](C)(C(=O)O)CC2)c1C(F)(F)F [Example 657, trans-4-(4-((2-(2-chloro-6-fluorophenyl)-2-oxoethyl)(2,2-dimethylbutyl)carbamoyl)-5-(trifluoromethyl)-1H-pyrazol-1-yl)-1-methylcyclohexanecarboxylic acid] | 2.24 nM
CC1(C)[C@@H]2C[C@H](N(CC(=O)c3c(F)cccc3Cl)C(=O)c3cnn([C@H]4CC[C@](C)(C(=O)O)CC4)c3C(F)(F)F)C[C@@H]21 [Example 658, trans-4-(4-((2-(2-chloro-6-fluorophenyl)-2-oxoethyl)((1R,3r,5S)-6,6-dimethylbicyclo[3.1.0]hex-3-yl)carbamoyl)-5-(trifluoromethyl)-1H-pyrazol-1-yl)-1-methylcyclohexanecarboxylic acid] | 1.95 nM
CC(C)(C)CN(CC(=O)c1c(Cl)cncc1Cl)C(=O)c1cnn([C@@H]2CCCC[C@H]2CC(=O)O)c1C(F)(F)F [Example 659, ((1S,2R)-2-(4-((2-(3,5-dichloro-4-pyridinyl)-2-oxoethyl)(2,2-dimethylpropyl)carbamoyl)-5-(trifluoromethyl)-1H-pyrazol-1-yl)cyclohexyl)acetic acid] | 331 nM
C[C@@]1(CN(CC(=O)c2c(Cl)cncc2Cl)C(=O)c2cnn([C@H]3CC[C@](C)(C(=O)O)CC3)c2C(F)(F)F)CCCO1 [Example 660, trans-4-(4-((2-(3,5-dichloro-4-pyridinyl)-2-oxoethyl)(((2S)-2-methyltetrahydro-2-furanyl)methyl)carbamoyl)-5-(trifluoromethyl)-1H-pyrazol-1-yl)-1-methylcyclohexanecarboxylic acid] | 25.7 nM
C[C@]1(CN(CC(=O)c2c(Cl)cncc2Cl)C(=O)c2cnn([C@H]3CC[C@](C)(C(=O)O)CC3)c2C(F)(F)F)CCCO1 [Example 661, trans-4-(4-((2-(3,5-dichloro-4-pyridinyl)-2-oxoethyl)(((2R)-2-methyltetrahydro-2-furanyl)methyl)carbamoyl)-5-(trifluoromethyl)-1H-pyrazol-1-yl)-1-methylcyclohexanecarboxylic acid] | 20.4 nM
C[C@H]1C[C@H](n2ncc(C(=O)N(CC(=O)c3c(Cl)cccc3Cl)CC3CC(C)(C)C3)c2C(F)(F)F)CC[C@H]1C(=O)O [Example 662, (1R,2S,4R)-4-(4-((2-(2,6-dichlorophenyl)-2-oxoethyl)((3,3-dimethylcyclobutyl)methyl)carbamoyl)-5-(trifluoromethyl)-1H-pyrazol-1-yl)-2-methylcyclohexanecarboxylic acid] | 7.08 nM
C[C@@H]1C[C@@H](n2ncc(C(=O)N(CC(=O)c3c(Cl)cccc3Cl)CC3CC(C)(C)C3)c2C(F)(F)F)CC[C@@H]1C(=O)O [Example 663, (1S,2R,4S)-4-(4-((2-(2,6-dichlorophenyl)-2-oxoethyl)((3,3-dimethylcyclobutyl)methyl)carbamoyl)-5-(trifluoromethyl)-1H-pyrazol-1-yl)-2-methylcyclohexanecarboxylic acid] | 1.95 nM
C[C@]1(C(=O)O)CC[C@H](n2ncc(C(=O)N(CC(=O)c3c(Cl)cc(F)cc3Cl)CC3CCCCC3)c2C(F)(F)F)CC1 [Example 664, trans-4-(4-((cyclohexylmethyl)(2-(2,6-dichloro-4-fluorophenyl)-2-oxoethyl)carbamoyl)-5-(trifluoromethyl)-1H-pyrazol-1-yl)-1-methylcyclohexanecarboxylic acid] | 1.45 nM
Cc1cc(Cl)c(C(=O)CN(CC2(F)CCCCC2)C(=O)c2cnn([C@H]3CC[C@](C)(C(=O)O)CC3)c2C(F)(F)F)c(Cl)c1 [Example 665, trans-4-(4-((2-(2,6-dichloro-4-methylphenyl)-2-oxoethyl)((1-fluorocyclohexyl)methyl)carbamoyl)-5-(trifluoromethyl)-1H-pyrazol-1-yl)-1-methylcyclohexanecarboxylic acid] | 1.38 nM
C[C@]1(C(=O)O)CC[C@H](n2ncc(C(=O)N(CC(=O)c3c(Cl)cncc3Cl)CC3(F)CCCCC3)c2C(F)(F)F)CC1 [Example 666, trans-4-(4-((2-(3,5-dichloro-4-pyridinyl)-2-oxoethyl)((1-fluorocyclohexyl)methyl)carbamoyl)-5-(trifluoromethyl)-1H-pyrazol-1-yl)-1-methylcyclohexanecarboxylic acid] | 4.57 nM
